Data on one compound can be found in patent publication US11779559B2, “Compositions for treating fungal and bacterial biofilms and methods of using the same” (priority 2017, dated 2023).

A value given as a limit tells only on which side of the number the result lay.

Assay [1] relates to S. aureus. The experiment in a line: Sustained inhibition biofilm assay, bacterial. The assay is classed as cell-based, Staphylococcus aureus. To be noted: sustained inhibition assay; S. aureus; 1% amino acid (unless specifically noted); p≤0.001. As for the experimental part: (§1) Two types of biofilm assays were performed: a sustained inhibition assay and a disruption assay. The sustained inhibition assay assesses the compound's ability to prevent biofilm development throughout all stages of biofilm formation, while the disruption assay assesses the compound's ability to break up an existing mature biofilm. These assays are described in detail in the following article: Lohse, M. B., Gulati, M., Valle Arevalo, A., Fishburn, A., Johnson, A. D., and Nobile, C. […] Antimicrobial Agents and Chemotherapy 61: e02749-16.
(§2) All bacterial biofilm solutions were prepared in Trypic Soy Broth (TSB), supplemented with 1% glucose (henceforth referred to as TSB-G). All subsequent procedures were performed in a manner that maintained sterility. A solution of each amino acid to be tested was prepared in weight to volume concentrations ranging from 0.1-5.0%. Amino acids were also tested in combinations. Compound solutions were homogenized with gentle agitation in the dark (4° C., 24 hours) before use.
(§3) Bacterial strains were streaked on Blood Agar plates (5% sheep blood in Tryptic Soy Agar) and incubated at 37° C. for 24 hours. A single colony from each strain to be tested was inoculated in a TSB broth and grown for 12 hours, at 37° C. with shaking (225 rpm). For the bacterial biofilm inhibition assays, 1 μL of saturated overnight cell culture was added to either 80 μL of TSB-G, or TSB-G supplemented with the amino acid compound solution to be tested, in a 384-well plate. The cells were allowed to adhere to the plate for 60 minutes at 37° C. without shaking. The media was carefully aspirated and 80 μL of TSB-G, or TSB-G supplemented with the amino acid compound solution was added to the plate. The plate was further incubated for 24 hours at 37° C. without shaking. Media was carefully aspirated and the biofilm was measured by optical density at 600 nm. Eight or twelve replicates were performed for each tested condition and the reported values are normalized to the control (TSB-G media only). For the bacterial biofilm disruption assays, 80 μL of TSB-G was added to the plate, along with 1 μL of overnight cell culture. The cells were allowed to adhere to the plate for 60 minutes at 37° C. with no shaking. The media was carefully aspirated and 80 μL of TSB-G was added to the plate. The plate was further incubated for 24 hours at 37° C. with no shaking. Media was carefully aspirated from the mature biofilm and 80 μL of TSB-G, or TSB-G supplemented with the amino acid to be tested, was gently added to the plate. The plate was further incubated for 24 hours at 37° C. without shaking. Media was aspirated and the biofilm was measured by optical density at 600 nm. Twelve replicates were performed for each tested condition and the reported values are normalized to the control (TSB-G media only).

The subject of assay [2] is S. aureus. Kind of assay: Disruption biofilm assay, bacterial. The assay is classed as cell-based, Staphylococcus aureus. To be noted: Staphylococcus aureus, 24 h; disruption assay; S. aureus; 1% amino acid (unless specifically noted); p≤0.001; read-out: Reduce B Biofilm. As for the experimental part: as §1, §2, §3
In assay [3] the test system is fungal and bacterial biofilms. Kind of assay: Biofilm assays (sustained inhibition and disruption), fungal and bacterial biofilms. In kind it is cell-based. The settings on record: single component on its own. As for the experimental part: Two types of biofilm assays were performed: a sustained inhibition assay and a disruption assay. The sustained inhibition assay assesses the compound's ability to prevent biofilm development throughout all stages of biofilm formation, while the disruption assay assesses the compound's ability to break up an existing mature biofilm. These assays are described in detail in the following article: Lohse, M. B., Gulati, M., Valle Arevalo, A., Fishburn, A., Johnson, A. D., and Nobile, C. J. (2017) Assessment and optimizations of Candida albicans in vitro biofilm assays. Antimicrobial Agents and Chemotherapy 61: e02749-16.
For fungal biofilm assays, all solutions were prepared in RPMI 1640 medium. All bacterial biofilm solutions were prepared in Trypic Soy Broth (TSB), supplemented with 1% glucose (henceforth referred to as TSB-G). All subsequent procedures were performed in a manner that maintained sterility. A solution of each amino acid to be tested was prepared in weight to volume concentrations ranging from 0.1-5.0%. Amino acids were also tested in combinations. Compound solutions were homogenized with gentle agitation in the dark (4° C., 24 hours) before use.
All biofilm assays were performed using 384-well non-tissue culture treated polystyrene plates. The fungal species tested are as follows: Candida albicans, Candida guilhermondii, Candida parapsilosis, Candida glabrata, Candida tropicalis, Candida dubliniensis, and Candida auris. The bacterial species tested are as follows: Staphylococcus aureus (standard wild type and methicillin-resistant strain USA300), Escherichia coli, Pseudomonas aeruginosa and Staphylococcus epidermidis.
Fungal strains were streaked on Yeast Peptone Dextrose (YPD) agar plates and incubated at 30° C. for 48 hours. A single colony from each strain to be tested was inoculated into YPD broth and grown for 12 hours, at 30° C., shaking at 225 rpm. For the fungal biofilm inhibition assay, 1 μl of saturated overnight cell culture was added to either 80 μL of RPMI-1640 or RPMI-1640 supplemented with the amino acid compound solution to be tested, in a 384-well plate. The cells were allowed to adhere to the plate for 90 minutes at 37° C. with shaking (350 rpm). Loosely bound cells were washed once with phosphate buffered saline (PBS) and 80 ul of RPMI-1640, or RPMI-1640 supplemented with the amino acid compound solution was added to the plate. The plate was further incubated for 24 hours at 37° C. with shaking (350 rpm). Media was carefully aspirated and the biofilm was measured by optical density at 600 nm. Twelve replicates were performed for each tested condition and the reported values are normalized to the control (RPMI-1640 media only). For the fungal biofilm disruption assays, 80 μL of RPMI-1640 was added to the plate, along with 1 μL of overnight cell culture. The cells were allowed to adhere to the plate for 90 minutes at 37° C. with shaking (350 rpm). Loosely bound cells were washed once with PBS and 80 μL of RPMI-1640 was added to the plate. The plate was further incubated for 24 hours at 37° C. with shaking (350 rpm). Media was carefully aspirated from the mature biofilm and 80 μL of RPMI-1640, or RPMI-1640 supplemented with the amino acid compound solution to be tested, was gently added to the plate. The plate was further incubated for 24 hours at 37° C. with shaking (350 rpm). Media was carefully aspirated and the biofilm was measured by optical density at 600 nm. Twelve replicates were performed for each tested condition and the reported values are normalized to the control (RPMI-1640 media only).
Bacterial strains were streaked on Blood Agar plates (5% sheep blood in Tryptic Soy Agar) and incubated at 37° C. for 24 hours. A single colony from each strain to be tested was inoculated in a TSB broth and grown for 12 hours, at 37° C. with shaking (225 rpm).

For `N[C@@H](CC(=O)O)C(=O)O` [Aspartic Acid, L-aspartic acid], in the assay with S. aureus [1], the “Reduce B Biofilm” value was “●● (two dots [ie. ••] signifies major effect (greater than about 30% change))”. Moreover, the inhibition at 1 % in the assay on S. aureus [2] was greater than 30%. In addition, in assay [3], the Effect on biofilms result is “very active against biofilms”.
